In assay [1] the target is T1, human vanilloid receptor VR-1 (hVR1) (Homo sapiens, UniProt Q8NER1).
T1 construct: expressed in transfected cells; host or cells: HEK293 Tet-on cells (hVR1-HEK293), expression induced with doxycycline
Briefly: Calcium influx test of vanilloid receptor (capsaicin-induced, Fluo-3/AM, hVR1-HEK293 cells). Type of assay: cell-based. The settings on record: for IC50: calcium influx induced by 1 μM capsaicin, read-out: Inhibitory effect IC50 (nM) on calcium influx; for inhibition at 0.2 µM: single concentration of compound 200 nM, 1 μM capsaicin, read-out: Inhibitory effect (%) on calcium influx. Here is the method: In order to measure an activity of the biaryl benzoimidazole derivative of the invention as an antagonist, a calcium influx test was performed.
An hVR1-HEK293 cell line is a cell line, in which a Human Embryonic Kidney (HEK) 293 Tet-on cell is transformed with a human vanilloid-1 gene (pTRE2hyg-hVR1, 7.8 kb). The cell line can regulate a VR-1 expression, depending on the administration of a tetracycline analogue, doxycycline. At two days before the calcium influx test, the cell line was cultured in media containing doxycycline to induce the VR-1 expression, and then used. First, the hVR1-HEK293 cells were cultured in T75 flasks to have a density of about 80%, and then detached from the bottom of the flasks by using trypsin. The detached cells were centrifuged and collected. Then, the cells were suspended in media containing 1 μg/mL doxycycline, and diluted to have a concentration of 2×10^5 to 4×10^5 cells/mL. 100 μL of the suspended cells were added to each well of 96-well black plate, cultured at 37° C. and 5% CO2 cell incubator for two days, and then used in the calcium influx test.
The compound was dissolved in dimethyl sulfoxide (DMSO), and then used for the calcium influx test.
In order to measure the calcium influx […], the cells were cultured in a solution containing Fluo-3/AM, which is a calcium indicator, at 37° C. for 90 minutes, so as to be permeated by a fluorescent dye. […] 193 μL D-PBS were added to each well, and then the compound was added thereto in various concentrations. To measure an activity as an antagonist, the cells were treated with 1 μM capsaicin to stimulate the calcium influx. The inhibitory effect of the compound when calcium influx was induced by 1 μM capsaicin was measured depending on its concentration using a fluorescence spectrometer, and the obtained data were substituted into a hill equation to analyze the values.
The inhibitory effect on calcium influx was measured with a single concentration of the compounds of the invention (200 nM), and the result thereof are shown in Table 2.

In a further assay the test system is ICR male mouse. Briefly: PBQ-induced writhing test (analgesic efficacy). The settings on record: oral administration, PBQ 0.02% intraperitoneal. Format: in vivo. On the procedure: In order to test analgesic efficacy of the biaryl benzoimidazole derivative of the invention, a PBQ-induced writhing test was performed using a mouse.
A 5-week-old ICR male mouse was used as an experimental animal, and PBQ (phenyl-p-quinone, 0.02%) was used as a chemical stimulator. 20 mg of the test material per mouse body weight were suspended in 10 mL solvent of Na-CMC and saline solution, and then used. […] Between 5 to 10 minutes after administration, the writhing frequency of each subject of the experimental groups was measured, and for the measurement of the analgesic efficacy, the frequency reduction was calculated as compared to a control group by using Equation 1. Inhibitory effect (%)=[(a control group administered with excipient−a group administered with test material)/a control group administered with excipient]×100 [Equation 1]
(Writhing tests count abdominal constrictions after an irritant is injected.)

T1 sequence (Q8NER1 whole entry): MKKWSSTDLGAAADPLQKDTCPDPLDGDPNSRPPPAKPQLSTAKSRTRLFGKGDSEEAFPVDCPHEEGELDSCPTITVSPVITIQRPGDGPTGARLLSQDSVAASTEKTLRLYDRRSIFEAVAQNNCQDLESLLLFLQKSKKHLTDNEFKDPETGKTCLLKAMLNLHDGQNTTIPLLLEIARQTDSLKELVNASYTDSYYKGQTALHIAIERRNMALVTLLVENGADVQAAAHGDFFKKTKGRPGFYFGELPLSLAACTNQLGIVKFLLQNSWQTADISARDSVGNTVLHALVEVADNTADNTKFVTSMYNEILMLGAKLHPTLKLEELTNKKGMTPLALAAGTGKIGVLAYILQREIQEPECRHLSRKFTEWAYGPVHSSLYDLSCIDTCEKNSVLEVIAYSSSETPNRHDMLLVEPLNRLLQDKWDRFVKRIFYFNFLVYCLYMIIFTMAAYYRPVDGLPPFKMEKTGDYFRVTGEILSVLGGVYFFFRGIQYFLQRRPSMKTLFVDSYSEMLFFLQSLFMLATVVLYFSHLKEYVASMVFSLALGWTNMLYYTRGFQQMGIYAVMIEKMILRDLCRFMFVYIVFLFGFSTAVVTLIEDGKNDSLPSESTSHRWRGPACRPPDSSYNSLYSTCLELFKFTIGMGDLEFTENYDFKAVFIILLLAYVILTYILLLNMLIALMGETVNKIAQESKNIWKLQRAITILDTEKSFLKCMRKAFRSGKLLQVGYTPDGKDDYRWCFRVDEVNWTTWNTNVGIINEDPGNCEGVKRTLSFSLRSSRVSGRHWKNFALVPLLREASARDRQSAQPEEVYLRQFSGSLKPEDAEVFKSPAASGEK

`CC(C)(C)c1ccc2nc(-c3ccc(-c4ncc(CO)cc4Cl)cc3)[nH]c2c1` [Compound 29, {6-[4-(6-tert-butyl-1H-benzoimidazol-2-yl)-phenyl]-5-chloro-pyridin-3-yl}-methanol]: in assay [1], the concentration for half-maximal inhibition (IC50) (as a rule, the point on the concentration scale where inhibition reaches its midpoint) was 15.9 nM and the inhibition at 0.2 µM was found to be 74.8%. For the same compound, the “Inhibitory effect (%) on writhing frequency” value (shortened to “Inhibitory effect (%)”) in the assay with ICR male mouse ((1 hour)) was 59 (1 hour) %.

Consider `COC(=O)c1cnc(-c2ccc(-c3nc4ccc(C(F)(F)F)cc4[nH]3)cc2)c(Cl)c1` [Compound 48, 5-chloro-6-[4-(6-trifluoromethyl-1H-benzoimidazol-2-yl)-phenyl]-nicotinic acid methyl ester], for which, in assay [1], the IC50 was found to be 55.1 nM and the inhibition at 0.2 µM came to 38.7%. Also, in the assay on ICR male mouse ((1 hour)), the “Inhibitory effect (%)” value is given as 41 (1 hour) %.

Take `COC(=O)c1cnc(-c2ccc(-c3nc4ccc(C(C)(C)C)cc4[nH]3)cc2)c(Cl)c1` [Compound 49, 6-[4-(6-tert-butyl-1H-benzoimidazol-2-yl)-phenyl]-5-chloro-nicotinic acid methyl ester]: in assay [1], the IC50 stood at 23.1 nM and the inhibition at 0.2 µM worked out at 85%. For the same compound, the “Inhibitory effect (%)” value in the assay on ICR male mouse ((2 hour)) was 49 (2 hour) %.

As for `COC(=O)c1cnc(-c2ccc(-c3nc4ccc(Br)cc4[nH]3)cc2)c(Cl)c1` [Compound 50, 6-[4-(6-bromo-1H-benzoimidazol-2-yl)-phenyl]-5-chloro-nicotinic acid methyl ester], in assay [1], the IC50 turned out to be 62.3 nM and the inhibition at 0.2 µM was found to be 46.4%. The “Inhibitory effect (%)” value in the assay on ICR male mouse ((1 hour)) is recorded as 19 (1 hour) %.

As for `CC(=O)OCc1cnc(-c2ccc(-c3nc4ccc(C(F)(F)F)cc4[nH]3)cc2)c(Cl)c1` [Compound 53, acetic acid 5-chloro-6-[4-(6-trifluoromethyl-1H-benzoimidazol-2-yl)-phenyl]-pyridin-3-yl methyl ester], in assay [1], the IC50 was 90.4 nM and the inhibition at 0.2 µM stood at 37.4%. For the same compound, the “Inhibitory effect (%)” value in the assay with ICR male mouse ((2 hour)) is 34 (2 hour) %.

`COC(=O)c1cnc(-c2ccc(-c3nc4ccc(N5CCN(C)CC5)cc4[nH]3)nc2)c(Cl)c1` [Compound 72, 3-chloro-6′-[6-(4-methyl-piperazin-1-yl)-1H-benzoimidazol-2-yl]-[2,3′]bipyridinyl-5-carboxylic acid methyl ester]: the inhibition at 0.2 µM in assay [1] is -2.9%. For the same compound, in the assay on ICR male mouse ((0.5 hour)), the “Inhibitory effect (%)” value is recorded as 31 (0.5 hour) %.

Consider `COC(=O)c1cnc(-c2ccc(-c3nc4ccc(C(F)(F)F)cc4[nH]3)nc2)c(Cl)c1` [Compound 73, 3-chloro-6′-(6-trifluoromethyl-1H-benzoimidazol-2-yl)-[2,3′]bipyridinyl-5-carboxylic acid methyl ester], for which, in assay [1], the IC50 is 55.2 nM and the inhibition at 0.2 µM was 56.1%. The “Inhibitory effect (%)” value with ICR male mouse ((1 hour)) is recorded as 39 (1 hour) %.

In the case of `OCc1cnc(-c2ccc(-c3nc4ncc(Br)cc4[nH]3)nc2)c(Cl)c1` [Compound 92, [6′-(6-bromo-1H-imidazo[4,5-b]pyridin-2-yl)-3-chloro-[2,3′]bipyridinyl-5-yl]-methanol], the inhibition at 0.2 µM in assay [1] is 7.3%.

As to `OCc1cnc(-c2ccc(-c3nc4c(Br)cc(C(F)(F)F)cc4[nH]3)nc2)c(Cl)c1` [Compound 93, [6′-(4-bromo-6-trifluoromethyl-1H-benzoimidazol-2-yl)-3-chloro-[2,3′]bipyridinyl-5-yl]-methanol], in assay [1], the IC50 amounted to 129 nM and the inhibition at 0.2 µM came out at 41%.

On to `OCc1cnc(-c2ccc(-c3nc4c(Br)cc(Br)cc4[nH]3)nc2)c(Cl)c1` [Compound 94, [3-chloro-6′-(4,6-dibromo-1H-benzoimidazol-2-yl)-[2,3′]bipyridinyl-5-yl]-methanol], for which, in assay [1], the inhibition at 0.2 µM turned out to be 9.8%.

Regarding `CCNC(=O)c1cnc(-c2ccc(-c3nc4ccc(N5CCOCC5)cc4[nH]3)nc2)c(Cl)c1` [Compound 95, 3-chloro-6′-(6-morpholin-4-yl-1H-benzoimidazol-2-yl)-[2,3′]bipyridinyl-5-carboxylic acid ethyl amide], in assay [1], the inhibition at 0.2 µM was -0.6%.

In the case of `CCNC(=O)c1cnc(-c2ccc(-c3nc4ccc(C(F)(F)F)cc4[nH]3)nc2)c(Cl)c1` [Compound 97, 3-chloro-6′-(6-trifluoromethyl-1H-benzoimidazol-2-yl)-[2,3′]bipyridinyl-5-carboxylic acid ethyl amide], the inhibition at 0.2 µM in assay [1] came out at 13.3%.

As to `CCNC(=O)c1cnc(-c2ccc(-c3nc4ccc(C(C)(C)C)cc4[nH]3)nc2)c(Cl)c1` [Compound 98, 6′-(6-tert-butyl-1H-benzoimidazol-2-yl)-3-chloro-[2,3′]bipyridinyl-5-carboxylic acid ethyl amide], the inhibition at 0.2 µM in assay [1] turned out to be 13.2%.

On to `CCNC(=O)c1cnc(-c2ccc(-c3nc4ccc(Br)cc4[nH]3)nc2)c(Cl)c1` [Compound 99, 6′-(6-bromo-1H-benzoimidazol-2-yl)-3-chloro-[2,3′]bipyridinyl-5-carboxylic acid ethyl amide], for which the inhibition at 0.2 µM in assay [1] is 17.5%.

Turning to `CCNC(=O)c1cnc(-c2ccc(-c3nc4ncc(Br)cc4[nH]3)nc2)c(Cl)c1` [Compound 100, 6′-(6-bromo-1H-imidazo[4,5-b]pyridin-2-yl)-3-chloro-[2,3′]bipyridinyl-5-carboxylic acid ethyl amide], in assay [1], the inhibition at 0.2 µM was 13%.

Regarding `CCNC(=O)c1cnc(-c2ccc(-c3nc4c(Br)cc(C(F)(F)F)cc4[nH]3)nc2)c(Cl)c1` [Compound 101, 6′-(4-bromo-6-trifluoromethyl-1H-benzoimidazol-2-yl)-3-chloro-[2,3′]bipyridinyl-5-carboxylic acid ethyl amide], the inhibition at 0.2 µM in assay [1] is 3.7%.

For the compound `CCNC(=O)c1cnc(-c2ccc(-c3nc4c(Br)cc(Br)cc4[nH]3)nc2)c(Cl)c1` [Compound 102, 3-chloro-6′-(4,6-dibromo-1H-benzoimidazol-2-yl)-[2,3′]bipyridinyl-5-carboxylic acid ethyl amide], the inhibition at 0.2 µM in assay [1] was 13.2%.

For the origin of these results see US8940769B2, “Biaryl benzoimidazole derivatives and pharmaceutical composition comprising the same” (Daewoong Pharmaceutical Co., Ltd., priority 2006, dated 2015).
